The values that follow come from ChEMBL document CHEMBL1141104, “Glycodiversification for the optimization of the kanamycin class aminoglycosides” (2005).

Values after ≈ are worked out from the molar mass of the structure shown. Active and inactive are the calls of the source. No cut-off for these calls is given here.

The test system of test [1] is Staphylococcus aureus. Put plainly: Minimum inhibitory concentration against Staphylococcus aureus (ATCC 25923). The test is classed as functional.
For test [2], the system named is Escherichia coli. Put plainly: Minimum inhibitory concentration against Escherichia coli (ATCC 25922). The test is classed as functional.
Test [3] relates to Escherichia coli. Put plainly: Minimum inhibitory concentration against Escherichia coli (ATCC 25922); inactive. Type of test: functional, organism-based.
The test system of test [4] is Staphylococcus aureus. Put plainly: Minimum inhibitory concentration against Staphylococcus aureus (ATCC 25923); inactive. The test is classed as functional, organism-based.
[5] abbreviates: Staphylococcus aureus, ATCC 25923, read-out: MIC.
[6] abbreviates: Escherichia coli, ATCC 25922, read-out: MIC.

The term MIC denotes the least concentration at which growth counts as inhibited. Take `CC1OC(OC2C(N)CC(N)C(OC3OC(CN)C(O)C(O)C3N)C2O)C(O)C(O)C1OC[C@H](N)CN` (some centres undefined): the minimal inhibitory concentration (MIC) with Staphylococcus aureus [1] (setting [5]) and with Escherichia coli [2] (setting [6]) was 8 mg/L (≈ 14.8 µM) each time.

`NC[C@@H]1O[C@H](O[C@H]2[C@H](O)[C@H](O[C@H]3O[C@H](CO)[C@H](O)[C@@H](O)[C@H]3O)[C@H](N)C[C@H]2N)[C@@H](N)[C@@H](O)[C@@H]1O`: the MIC in the test on Staphylococcus aureus [1] (setting [5]) and in the test on Escherichia coli [2] (setting [6]) was 32 mg/L (≈ 66 µM) throughout.

Turning to `CC1OC(OC2C(N)CC(N)C(OC3OC(CN)C(O)C(O)C3N)C2O)C(O)C(O)C1OCC(CN)OC[C@H](O)CN` (some centres undefined), the MIC in the test with Staphylococcus aureus [1] (setting [5]) was found to be 4 mg/L (≈ 6.51 µM); in the test on Escherichia coli [2] (setting [6]), 8 mg/L (≈ 13 µM).

Consider `CC1OC(OC2C(N)CC(N)C(OC3OC(CN)C(O)C(O)C3N)C2O)C(O)C(N)C1OCC(O)CN` (centres undefined), for which the MIC in the test with Staphylococcus aureus [1] (setting [5]) turned out to be 2 mg/L (≈ 3.7 µM); in the test with Escherichia coli [2] (setting [6]), 4 mg/L (≈ 7.4 µM).

For `CC1OC(OC2C(N)CC(N)C(OC3OC(CN)C(O)C(O)C3N)C2O)C(O)C(O)C1O` (stereo in doubt) [listing 1 of 2 here], the MIC with Staphylococcus aureus [1] (setting [5]) was found to be 16 mg/L (≈ 34.2 µM); in the test on Escherichia coli [2] (setting [6]) it was 32 mg/L (≈ 68.3 µM).

`NC[C@H]1O[C@H](O[C@H]2[C@H](O)[C@@H](O[C@H]3O[C@H](CO)[C@@H](O)[C@H](N)[C@H]3O)[C@H](N)C[C@@H]2N)[C@H](N)[C@@H](O)[C@@H]1O` [BEKANAMYCIN]: the MIC in the test on Staphylococcus aureus [1] is 1 mg/L (≈ 2.07 µM); in the test with Staphylococcus aureus [1] (setting [5]) it was 2 mg/L (≈ 4.14 µM); against Escherichia coli [2] it was 4 mg/L (≈ 8.27 µM); in the test with Escherichia coli [2] (setting [6]), 2 mg/L (≈ 4.14 µM).

Consider `CC1OC(OC2C(N)CC(N)C(OC3OC(CN)C(O)C(O)C3N)C2O)C(O)C(O)C1OC[C@@H](O)CN` (some centres undefined), for which the MIC in the test on Staphylococcus aureus [1] (setting [5]) and with Escherichia coli [2] (setting [6]) was 4 mg/L (≈ 7.39 µM) in each case.

Turning to `CC1OC(OC2C(N)CC(N)C(OC3OC(CN)C(O)C(O)C3N)C2O)C(O)C(O)C1O` (stereo in doubt; 23), the MIC result in the test with Escherichia coli [3] and in the test with Staphylococcus aureus [4] was “inactive” each time.

`CC1OC(OC2C(N)CC(N)C(OC3OC(CN)C(O)C(O)C3N)C2O)C(O)C(O)C1OCCCN` (centres undefined): the MIC with Staphylococcus aureus [1] (setting [5]) and with Escherichia coli [2] (setting [6]) was 4 mg/L (≈ 7.61 µM) in each case.

Consider `CC1OC(OC2C(N)CC(N)C(OC3OC(CN)C(O)C(O)C3N)C2O)C(O)C(O)C1N` (centres undefined), for which the MIC with Staphylococcus aureus [1] (setting [5]) is 2 mg/L (≈ 4.28 µM); with Escherichia coli [2] (setting [6]), 12 mg/L (≈ 25.7 µM).

Turning to `CC1OC(OC2C(N)CC(N)C(OC3OC(CN)C(O)C(O)C3N)C2O)C(O)C(O)C1OC[C@H](O)CN` (some centres undefined), the MIC in the test with Staphylococcus aureus [1] (setting [5]) and with Escherichia coli [2] (setting [6]) was 4 mg/L (≈ 7.39 µM) each time.

In the case of `NCC1OC(OC2C(N)CC(N)C(OC3OCC(O)C(O)C3O)C2O)C(N)C(O)C1O` (centres undefined), the minimal inhibitory concentration (MIC) was found to be 64 mg/L (≈ 141 µM) with Staphylococcus aureus [1] (setting [5]) and 32 mg/L (≈ 70.4 µM) in the test with Escherichia coli [2] (setting [6]).

As to `CC1CC(O)C(O)C(OC2C(N)CC(N)C(OC3OC(CN)C(O)C(O)C3N)C2O)O1` (centres undefined), the MIC entry in the test on Escherichia coli [3] and in the test on Staphylococcus aureus [4] was “inactive” throughout.

In the case of `CC1OC(OC2C(N)CC(N)C(OC3OC(CN)C(O)C(O)C3N)C2O)C(O)C(O)C1O` (stereo in doubt) [listing 2 of 2 here], the MIC result in the test on Escherichia coli [3] and in the test with Staphylococcus aureus [4] was “inactive” throughout.

With `CC1OC(OC2C(N)CC(N)C(OC3OC(CN)C(O)C(O)C3N)C2O)C(O)C(O)C1OC[C@@H](N)CN` (some centres undefined), the MIC with Staphylococcus aureus [1] (setting [5]) and in the test with Escherichia coli [2] (setting [6]) was 8 mg/L (≈ 14.8 µM) each time.

Take `CC1OC(OC2C(N)CC(N)C(OC3OC(CN)C(O)C(O)C3N)C2O)C(O)C(N)C1O` (centres undefined): the MIC in the test on Staphylococcus aureus [1] (setting [5]) and in the test on Escherichia coli [2] (setting [6]) was 2 mg/L (≈ 4.28 µM) each time.
